Laboratory results as given in US20210068395A1, “METHODS OF APPLYING ONE OR MORE CERTAIN HETEROARYL-1,2,4-TRIAZOLE AND HETEROARYL-TETRAZOLE COMPOUNDS TO CONTROL DAMAGE ON PLANTS, PROPAGATION MATERIAL THEREOF, AND PLANT DERIVED PRODUCTS” (SYNGENTA CROP PROTECTION AG, priority 2018, published 2021).

Key:
Type in all cases: in vivo
[1] = test system: Plutella xylostella (Diamond Back Moth); assay: Plutella xylostella feeding/contact activity, 24-well artificial diet; conditions: 192 h, application rate 200 ppm, 24-well artificial diet, 8 days after infestation, read-out: control in at least one of the two categories (mortality or growth inhibition)
Protocol: 24-well microtiter plates with artificial diet were treated with aqueous test solutions prepared from 10,000 ppm DMSO stock solutions by pipetting. After drying, Plutella eggs were pipetted through a plastic stencil onto a gel blotting paper and the plate was closed with it. The samples were assessed for mortality and growth inhibition in comparison to untreated samples 8 days after infestation.

[2] = test system: German cockroaches, Blattella germanica; assay: Cockroach N3 contact bioassay; conditions: 72 h, test rate 100 ppm, third nymphal stage, sprayed, 3 days
Protocol: (§1) Ten third nymphal stage German cockroaches, Blattella germanica, were placed in a 250 ml plastic drinking cup along with ca. 1 g of compressed rabbit food, and retained with a section of netting. Experimental compounds are diluted to 1000 ppm w/v in acetone, then subsequently to 100 ppm w/v in a 0.1% Tween solution in de-ionised water. 1 ml of the experimental solution is sprayed with a Potter tower directly through the retaining net onto the cockroach nymphs. A damp cotton wool ball is placed on top of the retaining net, and the cups held at 24° C. and ambient humidity. Assessment of mortality is made three days after application.

[3] = test system: house flies, Musca domestica; assay: House fly adult contact bioassay; conditions: 72 h, test rate 100 ppm, adult females, sprayed, 3 days
Protocol: as §1, with “adult female house flies, Musca domestica, are” for “third nymphal stage German cockroaches, Blattella germanica, were”, “a sugar cube,” for “ca. 1 g of compressed rabbit food,”, “adult house flies.” for “cockroach nymphs.”

[4] = test system: German cockroaches, Blattella germanica; assay: Cockroach bait bioassay; conditions: 72 h, test rate 1000 ppm in peanut butter bait, adults, 3 days
Protocol: The experimental compound is diluted in acetone to 1000 ppm w/v. 1 ml of this solution is added to 1 g of smooth peanut butter in a 15 ml glass vial and thoroughly mixed. This mixture is left in a fume cupboard for 24 hours until all the acetone has evaporated. It is then mixed again to ensure a homogeneous distribution of the experimental compound with a concentration of 1000 ppm w/w.
Ten adult male and ten adult female German cockroaches, Blattella germanica, are placed in a plastic arena approximately 20 cm in diameter. Also placed in each arena are a simple harbourage constructed from concertinaed card, and a water source. After the cockroaches have acclimatised for 24 hours the glass vial containing 1 g of the treated bait is introduced.
Assessment of cockroach mortality is made 3 days after bait introduction.

[5] = test system: Myzus persicae (Green Peach Aphid); assay: Myzus persicae systemic activity; conditions: 144 h, test rate 24 ppm, roots of pea seedlings in test solution, 6 days
Protocol: Roots of pea seedlings infested with an aphid population of mixed ages were placed directly into aqueous test solutions prepared from 10,000 DMSO stock solutions. The samples were assessed for mortality 6 days after placing seedlings into test solutions.

[6] = test system: Chrysodeixis includens (Soybean Looper); assay: Chrysodeixis includens larvicide, feeding/contact; conditions: 120 h, test rate 50 ppm, L2 larvae on soybean leaves, 5 days after infestation, read-out: control in at least one of the two categories (mortality or growth inhibition)
Protocol: Soybean plants were treated in a spray chamber, cut off and placed into petri dishes containing wet filter paper. 1 d after application leaves were infested with 5 L2 larvae and covered with a fabric filter and plastic lids. 5 days after infestation the samples were assessed for mortality and growth inhibition.

[7] = test system: Chilo suppressalis (Striped Stem Borer); assay: Chilo suppressalis larvicide, feeding/contact; conditions: 120 h, test rate 200 ppm, L2 larvae on sprayed rice plants, 5 days after application
Protocol: Rice plants were treated in a spray chamber, cut off and placed into petri dishes containing wet filter paper. 10 L2 larvae were infested and covered up with a cotton filter and a lid. 5 days after application samples were assessed for mortality.

[8] = test system: Aedes aegypti (Yellow Fever Mosquito); assay: whole plant or invertebrate; conditions: test rate 200 ppm, adult females, mortality assessed at 24 and 48 hours
Protocol: (§2) Test solutions, at an application rate of 200 ppm in ethanol, were applied to 12 well tissue culture plates. Once the deposits were dry, five, two to five day old adult female Aedes aegypti were added to each well, and sustained with a 10% sucrose solution in a cotton wool plug. Assessment of knockdown was made one hour after introduction, and mortality was assessed at 24 and 48 hours after introduction.

[9] = test system: Anopheles stephensi (Indian Malaria Mosquito); assay: Anopheles stephensi adult contact on treated plates; conditions: test rate 200 ppm, adult females, mortality assessed at 24 and 48 hours
Protocol: as §2, with “Anopheles stephensi” for “Aedes aegypti”

Structure (SMILES)	percent control (mortality or growth inhibition) at 200 ppm [1] [%]	mortality at 100 ppm [2] [%]	mortality at 100 ppm [3] [%]	mortality at 1000 ppm [4] [%]	mortality at 24 ppm [5] [%]	percent control (mortality or growth inhibition) at 50 ppm [6] [%]	mortality at 200 ppm [7] [%]	mortality at 200 ppm [8] [%]	mortality at 200 ppm [9] [%]
CC(NC(=O)c1cc(C(F)(F)F)cc(C(F)(F)F)c1)c1ncnn1-c1ncccn1 (centres unmarked) [Compound 4]	≥ 80	≥ 80	≥ 80	≥ 80					
CC(c1ncnn1-c1ncccn1)N(C)C(=O)c1cc(C(F)(F)F)cc(C(F)(F)F)c1 (centres unmarked) [Compound 1]	≥ 80				≥ 80	≥ 80	≥ 80		
CC(c1ncnn1-c1ncccn1)N(CC1CC1)C(=O)c1cc(C(F)(F)F)cc(C(F)(F)F)c1 (centres unmarked) [Compound 3]	≥ 80	≥ 80	≥ 80	≥ 80	≥ 80	≥ 80	≥ 80	≥ 60	≥ 60
